From patent US11739078B2, “Methods of inhibiting kinases” (INSILICO MEDICINE IP LIMITED, priority 2019, dated 2023)
Like-named read-outs stand apart in the source and are kept apart here.

Columns and labels:
TNIK = TNIK (Homo sapiens (Human), UniProt Q9UKE5); experiment: TNIK enzymatic assay (radiometric kinase inhibition); format: biochemical
Method: The compounds were studied for function as TNIK inhibitors to generate the data of Table 1. […] (specific activity and concentration as required). The reaction is initiated by the addition of the Mg/ATP mix. After incubation for 40 minutes at room temperature, the reaction is stopped by the addition of phosphoric acid to a concentration of 0.5%.

MAP4K4 (h) = MAP4K4 (h) (Homo sapiens (Human), UniProt O95819); experiment: MAP4K4 in vitro kinase assay (radiometric); format: biochemical; conditions: read-out: MAP4K4_IC50
Method: (specific activity and concentration as required). The reaction is initiated by the addition of the Mg/ATP mix. After incubation for 40 minutes at room temperature, the reaction is stopped by the addition of phosphoric acid to a concentration of 0.5%.

[1] = TNIK enzymatic assay, Table 1, read-out: IC50

TNIK, sequence (Q9UKE5 whole entry): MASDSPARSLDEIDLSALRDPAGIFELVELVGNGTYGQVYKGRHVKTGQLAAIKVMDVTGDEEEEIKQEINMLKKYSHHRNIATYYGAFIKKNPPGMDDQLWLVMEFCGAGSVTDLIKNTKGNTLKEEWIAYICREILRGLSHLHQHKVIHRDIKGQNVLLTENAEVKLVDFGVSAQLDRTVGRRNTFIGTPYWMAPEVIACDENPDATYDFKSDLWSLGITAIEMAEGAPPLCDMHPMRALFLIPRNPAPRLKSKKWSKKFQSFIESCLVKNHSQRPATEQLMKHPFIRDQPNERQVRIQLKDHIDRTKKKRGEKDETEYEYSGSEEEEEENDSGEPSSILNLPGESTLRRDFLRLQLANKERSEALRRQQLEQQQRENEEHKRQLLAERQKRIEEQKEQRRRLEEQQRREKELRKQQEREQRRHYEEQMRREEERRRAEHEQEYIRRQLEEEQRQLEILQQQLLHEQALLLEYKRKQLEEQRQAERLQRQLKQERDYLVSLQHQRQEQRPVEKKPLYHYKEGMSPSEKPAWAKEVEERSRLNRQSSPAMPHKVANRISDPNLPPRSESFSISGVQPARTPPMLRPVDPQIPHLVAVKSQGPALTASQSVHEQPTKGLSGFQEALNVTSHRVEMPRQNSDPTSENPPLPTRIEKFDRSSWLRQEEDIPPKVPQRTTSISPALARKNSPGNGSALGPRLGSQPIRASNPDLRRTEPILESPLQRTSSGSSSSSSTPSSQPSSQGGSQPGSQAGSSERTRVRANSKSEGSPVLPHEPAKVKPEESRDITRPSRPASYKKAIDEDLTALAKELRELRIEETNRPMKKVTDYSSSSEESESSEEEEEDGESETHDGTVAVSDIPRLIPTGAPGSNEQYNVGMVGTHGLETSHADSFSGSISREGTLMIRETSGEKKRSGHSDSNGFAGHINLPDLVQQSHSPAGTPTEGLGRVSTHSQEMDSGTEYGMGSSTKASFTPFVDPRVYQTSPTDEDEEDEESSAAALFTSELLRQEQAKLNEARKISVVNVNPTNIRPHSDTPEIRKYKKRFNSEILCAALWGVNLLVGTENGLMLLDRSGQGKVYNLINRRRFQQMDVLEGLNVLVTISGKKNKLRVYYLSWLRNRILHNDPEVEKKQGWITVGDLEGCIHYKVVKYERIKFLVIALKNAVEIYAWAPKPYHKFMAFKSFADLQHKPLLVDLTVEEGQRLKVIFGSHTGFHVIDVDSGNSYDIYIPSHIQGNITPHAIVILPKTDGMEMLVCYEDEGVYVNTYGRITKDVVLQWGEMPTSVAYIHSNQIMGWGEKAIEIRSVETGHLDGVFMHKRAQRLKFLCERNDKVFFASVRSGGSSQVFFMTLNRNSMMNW
MAP4K4 (h), sequence (O95819 whole entry): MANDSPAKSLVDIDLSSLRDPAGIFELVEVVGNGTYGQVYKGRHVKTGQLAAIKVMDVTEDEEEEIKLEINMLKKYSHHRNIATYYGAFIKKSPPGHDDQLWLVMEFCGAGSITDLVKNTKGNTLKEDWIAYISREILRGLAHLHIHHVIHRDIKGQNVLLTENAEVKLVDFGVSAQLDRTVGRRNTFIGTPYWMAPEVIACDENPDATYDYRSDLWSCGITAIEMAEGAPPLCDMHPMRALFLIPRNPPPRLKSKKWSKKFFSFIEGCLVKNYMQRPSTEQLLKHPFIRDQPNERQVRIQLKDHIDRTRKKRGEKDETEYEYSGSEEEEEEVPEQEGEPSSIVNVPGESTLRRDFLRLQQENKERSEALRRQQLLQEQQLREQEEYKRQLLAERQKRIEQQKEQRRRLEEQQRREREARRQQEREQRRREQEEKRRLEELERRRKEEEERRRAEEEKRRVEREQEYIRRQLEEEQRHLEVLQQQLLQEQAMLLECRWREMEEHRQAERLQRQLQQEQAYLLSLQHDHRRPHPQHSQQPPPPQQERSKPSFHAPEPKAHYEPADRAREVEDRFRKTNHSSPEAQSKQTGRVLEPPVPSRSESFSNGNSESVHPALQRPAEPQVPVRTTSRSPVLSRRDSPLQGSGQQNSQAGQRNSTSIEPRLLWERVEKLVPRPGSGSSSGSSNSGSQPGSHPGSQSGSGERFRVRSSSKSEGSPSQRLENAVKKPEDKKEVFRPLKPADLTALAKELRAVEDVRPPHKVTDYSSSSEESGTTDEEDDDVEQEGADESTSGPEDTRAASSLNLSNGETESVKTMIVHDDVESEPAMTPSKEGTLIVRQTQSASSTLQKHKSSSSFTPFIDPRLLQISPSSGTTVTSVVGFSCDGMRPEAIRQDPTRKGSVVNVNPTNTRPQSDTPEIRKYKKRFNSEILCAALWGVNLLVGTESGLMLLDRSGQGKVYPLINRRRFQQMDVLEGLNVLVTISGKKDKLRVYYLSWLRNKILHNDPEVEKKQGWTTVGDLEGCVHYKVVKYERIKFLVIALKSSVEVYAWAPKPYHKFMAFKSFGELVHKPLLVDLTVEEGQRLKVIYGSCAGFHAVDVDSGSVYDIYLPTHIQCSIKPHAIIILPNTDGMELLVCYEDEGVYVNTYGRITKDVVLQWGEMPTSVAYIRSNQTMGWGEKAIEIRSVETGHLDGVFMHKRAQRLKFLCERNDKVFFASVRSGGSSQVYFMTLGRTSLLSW

| Compound | IC50 (TNIK; [1]) | IC50 (TNIK; read-out: TNIK_IC50) | IC50 (MAP4K4 (h)) |
| --- | --- | --- | --- |
| CC(=O)c1cccc(NC(=O)c2ccc(-c3c(-c4ccc(F)cc4)ncn3C3CCCC3)o2)c1 [Compound 35, N-(3-acetylphenyl)-5-(1-cyclopentyl-4-(4-fluorophenyl)-1H-imidazol-5-yl)furan-2-carboxamide] | 151 nM | 151 nM | 274 nM |
| O=C(Nc1ccc(F)cc1)c1ccc(-c2c(-c3ccc(F)cc3)ncn2C2CCCC2)o1 [Compound 26, 5-(1-cyclopentyl-4-(4-fluorophenyl)-1H-imidazol-5-yl)-N-(4-fluorophenyl)furan-2-carboxamide] | 55 nM | 55 nM | 97.9 nM |
| CCOc1ccc(NC(=O)c2ccc(-c3c(-c4ccc(F)cc4)ncn3C3CCCC3)o2)cc1 [Compound 28, 5-(1-cyclopentyl-4-(4-fluorophenyl)-1H-imidazol-5-yl)-N-(4-ethoxyphenyl)furan-2-carboxamide] | 37 nM | 37 nM | 63.7 nM |
| CC(C)c1ccc(NC(=O)c2ccc(-c3c(-c4ccc(F)cc4)ncn3C3CCCC3)o2)cc1 [Compound 38, 5-(1-cyclopentyl-4-(4-fluorophenyl)-1H-imidazol-5-yl)-N-(4-isopropylphenyl)furan-2-carboxamide] | 46 nM | 46 nM | 168 nM |
| CCOc1ccc(NC(=O)c2ccc(-c3c(-c4ccc(F)cc4)ncn3C3CCCCC3)o2)cc1 [Compound 64, 5-(1-cyclohexyl-4-(4-fluorophenyl)-1H-imidazol-5-yl)-N-(4-ethoxyphenyl)furan-2-carboxamide] | 62 nM | 62 nM | 175 nM |
| CC(C)c1ccc(NC(=O)c2ccc(-c3c(-c4ccc(F)cc4)ncn3C3CCCCC3)o2)cc1 [Compound 73, 5-(1-cyclohexyl-4-(4-fluorophenyl)-1H-imidazol-5-yl)-N-(4-isopropylphenyl)furan-2-carboxamide] | 48 nM | 48 nM | 270 nM |

Compounds with a lower IC50 (TNIK; [1]), results first:

| IC50 (TNIK; [1]) | IC50 (TNIK; read-out: TNIK_IC50) | IC50 (MAP4K4 (h)) | Compound |
| --- | --- | --- | --- |
| 19 nM | 19 nM | 41.3 nM | O=C(Nc1ccc(Cl)cc1F)c1ccc(-c2c(-c3ccc(F)cc3)ncn2C2CCCC2)o1 [Compound 42, N-(4-chloro-2-fluorophenyl)-5-(1-cyclopentyl-4-(4-fluorophenyl)-1H-imidazol-5-yl)furan-2-carboxamide] |
| < 10 nM | 3.82 nM | 24.6 nM | O=C(Nc1cc(F)ccc1F)c1ccc(-c2c(-c3ccc(F)cc3)ncn2C2CCCC2)o1 [Compound 3, 5-(1-cyclopentyl-4-(4-fluorophenyl)-1H-imidazol-5-yl)-N-(2,5-difluorophenyl)furan-2-carboxamide] |
| < 10 nM | 3.86 nM | 4.46 nM | COc1ccccc1NC(=O)c1ccc(-c2c(-c3ccc(F)cc3)ncn2C2CCCC2)o1 [Compound 50, 5-(1-cyclopentyl-4-(4-fluorophenyl)-1H-imidazol-5-yl)-N-(2-methoxyphenyl)furan-2-carboxamide] |
